Laboratory results as given in US9493487B2, “3-(1H-imidazo[4,5-C]pyridin-2-YL)-1H-pyrazolo[3,4-B]pyridine and therapeutic uses thereof” (Samumed, LLC, priority 2014, dated 2016).

How the values were obtained:
[1] = test system: primary human fibroblasts derived from IPF patients (LL29 cells); assay: Inhibition of TGF-β1-induced fibrosis (αSMA staining) in primary human fibroblasts from IPF patients; assay type: cell-based; details: Fibroblast, 96 h, TGF-β1 20 ng/mL, 4 days, 11-point dose-response 10 μM to 1.87 nM
Description: The above synthesized compounds were screened using primary human fibroblasts (derived from IPF patients) treated with TGF-β1 to determine their ability to inhibit the fibrotic process.
Primary human fibroblasts derived from IPF patients (LL29 cells) [^1Xiaoqiu Liu, et. al., “Fibrotic Lung Fibroblasts Show Blunted Inhibition by cAMP Due to Deficient cAMP Response Element-Binding Protein Phosphorylation”, Journal of Pharmacology and Experimental Therapeutics (2005), 315(2), 678-687; ^2Watts, K. L., et. al., “RhoA signaling modulates cyclin D1 expression in human lung fibroblasts; implications for idiopathic pulmonary fibrosis”, Respiratory Research (2006), 7(1), 88] were obtained from American Type Culture Collection (ATCC) and expanded in F12 medium supplemented with 15% Fetal Bovine Serum and Penicillin/Streptomycin.
Each compound was dissolved in DMSO as a 10 mM stock and used to prepare compound source plates. Serial dilution (1:2, 11-point dose-response curves from 10 μM to 1.87 nM) and compound transfer was performed using the ECHO 550 (Labcyte, Sunnyvale, Calif.) into 384-well clear bottom assay plates (Greiner Bio-One) with appropriate DMSO backfill for a final DMSO concentration of 0.1%. LL29 cells were plated at 1,500 cells/well in 80 μl/well F12 medium supplemented with 1% Fetal Bovine Serum. One hour after addition of the cells, TGF-β1 (Peprotech; 20 ng/mL) was added to the plates to induce fibrosis (ref. 1 and 2 above). Wells treated with TGF-β1 and containing DMSO were used as controls. Cells were incubated at 37° C. and 5% CO2 for 4 days. Following incubation for 4 days, SYTOX green nucleic acid stain (Life Technologies [Thermo Fisher Scientific]) was added to the wells at a final concentration of 1 uM and incubated at room temperature for 30 min. Cells were then fixed using 4% formaldehyde (Electron Microscopy Sciences), washed 3 times with PBS followed by blocking and permeabilization using 3% Bovine Serum Albumin (BSA; Sigma) and 0.3% Triton X-100 (Sigma) in PBS. Cells were then stained with antibody specific to α-smooth muscle actin (αSMA; Abcam) (ref 1 and 2 above) in 3% Bovine Serum Albumin (BSA; Sigma) and 0.3% Triton X-100 (Sigma) in PBS, and incubated overnight at 4° C. Cells were then washed 3 times with PBS, followed by incubation with Alexa Flor-647 conjugated secondary antibody (Life Technologies [Thermo Fisher Scientific]) and DAPI at room temperature for 1 hour. Cells were then washed 3 times with PBS and plates were sealed for imaging. αSMA staining was imaged by excitation at 630 nm and emission at 665 nm and quantified using the Compartmental Analysis program on the CellInsight CX5 (Thermo Scientific). Dead or apoptotic cells were excluded from analysis based on positive SYTOX green staining. % of total cells positive for αSMA were counted in each well and normalized to the average of 11 wells treated with TGF-β1 on the same plate using Dotmatics' Studies Software. The normalized averages (fold change over untreated) of 3 replicate wells for each compound concentration were used to create dose-responses curves and EC50 values were calculated using non-linear regression curve fit in the Dotmatics' Studies Software. The EC50 values are reported.

[2] = test system: Wnt activity (Sp5-Luc reporter, SW480 colon carcinoma cells); assay: Sp5-Luc Wnt reporter gene assay in SW480 colon carcinoma cells; assay type: cell-based; details: Homo sapiens; SW480 cells stably expressing Sp5-Luc reporter; 42 h incubation; BrightGlo luminescence normalized to DMSO
Description: The screening assay for Wnt activity is described as follows. Reporter cell lines can be generated by stably transducing cancer cell lines (e.g., colon cancer) or primary cells (e.g., IEC-6 intestinal cells) with a lentiviral construct that includes a Wnt-responsive promoter driving expression of the firefly luciferase gene.
SW480 colon carcinoma cells were transduced with a lentiviral vector expressing luciferase with a human Sp5 promoter consisting of a sequence of eight TCF/LEF binding sites. SW480 cells stably expressing the Sp5-Luc reporter gene and a hygromycin resistance gene were selected by treatment with 150 μg/ml of hygromycin for 7 days. These stably transduced SW480 cells were expanded in cell culture and used for all further screening activities. For Sp5-Luc reporter gene assays, the cells were plated at 10,000 cells/well in 96-well plates with growth medium containing 10% fetal calf serum and incubated overnight at 37° C. and 5% CO2. Each compound was dissolved in DMSO as a 10 mM stock in standard j-vials and used to prepare compound source plates in dose-response format with 3-fold serial dilutions and a 10 mM top concentration. Compound transfer from serially diluted source plates to assay plates containing the cells was accomplished using a pintool (Multimek 96, Beckman equipped with V&P Scientific FP1S50H pins) based liquid handling protocol. This protocol used a slotted pin to transfer 50 nl of compound from a source plate well to an assay plate well containing 50 μl of cells in growth medium. […] Control wells received 50 nl of DMSO treatment for normalization and calculating IC50 values. The treated cells were incubated at 37° C. and 5% CO2 for an additional forty-two hours. Following incubation, the growth medium was removed and 50 μl of BrightGlo luminescence reagent (Promega) was added to each well of the 96-well assay plates. The plates were placed on an orbital shaker for 5 min and then luminescence was quantified on the Victor3 (Perkin Elmer) plate reader. Readings were normalized to DMSO only treated cells, and normalized activities were utilized for IC50 calculations using the dose-response log (inhibitor) vs. response-variable slope (four parameters) nonlinear regression feature available in GraphPad Prism 5.0 or 6.0.

SMILES | EC50 [1] | IC50 [2]
CCC(=O)Nc1cncc(-c2cnc3[nH]nc(-c4nc5c(N6CCCCC6)nccc5[nH]4)c3c2)c1 [Compound 157, N-(5-(3-(4-(Piperidin-1-yl)-1H-imidazo[4,5-c]pyridin-2-yl)-1H-pyrazolo[3,4-b]pyridin-5-yl)pyridin-3-yl)propionamide] | 432 nM | 148 nM
CN(C)c1cncc(-c2cnc3[nH]nc(-c4nc5c(N6CCCCC6)nccc5[nH]4)c3c2)c1 [Compound 163, N,N-Dimethyl-5-(3-(4-(piperidin-1-yl)-1H-imidazo[4,5-c]pyridin-2-yl)-1H-pyrazolo[3,4-b]pyridin-5-yl)pyridin-3-amine] | 9 nM | 777 nM
CN(C)Cc1cncc(-c2cnc3[nH]nc(-c4nc5c(N6CCCCC6)nccc5[nH]4)c3c2)c1 [Compound 169, N,N-Dimethyl-1-(5-(3-(4-(piperidin-1-yl)-1H-imidazo[4,5-c]pyridin-2-yl)-1H-pyrazolo[3,4-b]pyridin-5-yl)pyridin-3-yl)methanamine] | 888 nM | 2270 nM
O=C(Nc1cncc(-c2cnc3[nH]nc(-c4nc5c(N6CCCCC6)nccc5[nH]4)c3c2)c1)C1CC1 [Compound 175, N-(5-(3-(4-(Piperidin-1-yl)-1H-imidazo[4,5-c]pyridin-2-yl)-1H-pyrazolo[3,4-b]pyridin-5-yl)pyridin-3-yl)cyclopropanecarboxamide] | 859 nM | 413 nM
FC1(F)CCN(Cc2cncc(-c3cnc4[nH]nc(-c5nc6c(N7CCCCC7)nccc6[nH]5)c4c3)c2)C1 [Compound 181, 5-(5-((3,3-Difluoropyrrolidin-1-yl)methyl)pyridin-3-yl)-3-(4-(piperidin-1-yl)-1H-imidazo[4,5-c]pyridin-2-yl)-1H-pyrazolo[3,4-b]pyridine] | 1130 nM | 243 nM
Cc1cn(-c2nccc3[nH]c(-c4n[nH]c5ncc(-c6cncc(CN7CCCC7)c6)cc45)nc23)cn1 [Compound 196, 3-(4-(4-Methyl-1H-imidazol-1-yl)-1H-imidazo[4,5-c]pyridin-2-yl)-5-(5-(pyrrolidin-1-ylmethyl)pyridin-3-yl)-1H-pyrazolo[3,4-b]pyridine] | ≥ 9990 nM | 579 nM
CN1CCN(c2nccc3[nH]c(-c4n[nH]c5ncc(-c6cncc(N)c6)cc45)nc23)CC1 [Compound 211, 5-(3-(4-(4-Methylpiperazin-1-yl)-1H-imidazo[4,5-c]pyridin-2-yl)-1H-pyrazolo[3,4-b]pyridin-5-yl)pyridin-3-amine] | ≥ 9990 nM | 334 nM
CN1CCN(c2nccc3[nH]c(-c4n[nH]c5ncc(-c6cncc(CN7CCCCC7)c6)cc45)nc23)CC1 [Compound 223, 3-(4-(4-Methylpiperazin-1-yl)-1H-imidazo[4,5-c]pyridin-2-yl)-5-(5-(piperidin-1-ylmethyl)pyridin-3-yl)-1H-pyrazolo[3,4-b]pyridine] | ≥ 9990 nM | > 10000 nM
Cc1ccncc1-c1cnc2[nH]nc(-c3nc4c(-c5ccsc5)nccc4[nH]3)c2c1 [Compound 239, 5-(4-Methylpyridin-3-yl)-3-(4-(thiophen-3-yl)-1H-imidazo[4,5-c]pyridin-2-yl)-1H-pyrazolo[3,4-b]pyridine] | 24 nM | 18 nM
O=C(Nc1cncc(-c2cnc3[nH]nc(-c4nc5c(-c6ccsc6)nccc5[nH]4)c3c2)c1)c1ccccc1 [Compound 245, N-(5-(3-(4-(Thiophen-3-yl)-1H-imidazo[4,5-c]pyridin-2-yl)-1H-pyrazolo[3,4-b]pyridin-5-yl)pyridin-3-yl)benzamide] | 280 nM | 102 nM
c1ccc(CNCc2cncc(-c3cnc4[nH]nc(-c5nc6c(-c7ccsc7)nccc6[nH]5)c4c3)c2)cc1 [Compound 257, N-Benzyl-1-(5-(3-(4-(thiophen-3-yl)-1H-imidazo[4,5-c]pyridin-2-yl)-1H-pyrazolo[3,4-b]pyridin-5-yl)pyridin-3-yl)methanamine] | 244 nM | 309 nM
c1cc2[nH]c(-c3n[nH]c4ncc(-c5cncc(CNCC6CCCC6)c5)cc34)nc2c(-c2ccoc2)n1 [Compound 284, 1-Cyclopentyl-N-((5-(3-(4-(furan-3-yl)-1H-imidazo[4,5-c]pyridin-2-yl)-1H-pyrazolo[3,4-b]pyridin-5-yl)pyridin-3-yl)methyl)methanamine] | 1180 nM | 875 nM
CCC(=O)Nc1cncc(-c2cnc3[nH]nc(-c4nc5c(-c6cccs6)nccc5[nH]4)c3c2)c1 [Compound 287, N-(5-(3-(4-(Thiophen-2-yl)-1H-imidazo[4,5-c]pyridin-2-yl)-1H-pyrazolo[3,4-b]pyridin-5-yl)pyridin-3-yl)propionamide] | 578 nM | 22.9 nM
CN(C)c1cncc(-c2cnc3[nH]nc(-c4nc5c(-c6cccs6)nccc5[nH]4)c3c2)c1 [Compound 293, N,N-Dimethyl-5-(3-(4-(thiophen-2-yl)-1H-imidazo[4,5-c]pyridin-2-yl)-1H-pyrazolo[3,4-b]pyridin-5-yl)pyridin-3-amine] | 9 nM | 37.1 nM
CN(C)Cc1cncc(-c2cnc3[nH]nc(-c4nc5c(-c6cccs6)nccc5[nH]4)c3c2)c1 [Compound 299, N,N-Dimethyl-1-(5-(3-(4-(thiophen-2-yl)-1H-imidazo[4,5-c]pyridin-2-yl)-1H-pyrazolo[3,4-b]pyridin-5-yl)pyridin-3-yl)methanamine] | ≥ 9990 nM | 1440 nM
FC1(F)CCN(Cc2cncc(-c3cnc4[nH]nc(-c5nc6c(-c7cccs7)nccc6[nH]5)c4c3)c2)C1 [Compound 311, 5-(5-((3,3-Difluoropyrrolidin-1-yl)methyl)pyridin-3-yl)-3-(4-(thiophen-2-yl)-1H-imidazo[4,5-c]pyridin-2-yl)-1H-pyrazolo[3,4-b]pyridine] | 174 nM | 22.8 nM
CC(C)CC(=O)Nc1cncc(-c2cnc3[nH]nc(-c4nc5c(-c6ccc(F)s6)nccc5[nH]4)c3c2)c1 [Compound 314, N-(5-(3-(4-(5-Fluorothiophen-2-yl)-1H-imidazo[4,5-c]pyridin-2-yl)-1H-pyrazolo[3,4-b]pyridin-5-yl)pyridin-3-yl)-3-methylbutanamide] | 9 nM | 6.3 nM
CC(C)(C)C(=O)Nc1cncc(-c2cnc3[nH]nc(-c4nc5c(-c6ccc(F)s6)nccc5[nH]4)c3c2)c1 [Compound 320, N-(5-(3-(4-(5-Fluorothiophen-2-yl)-1H-imidazo[4,5-c]pyridin-2-yl)-1H-pyrazolo[3,4-b]pyridin-5-yl)pyridin-3-yl)pivalamide] | 9 nM | 9.3 nM
